What was measured:
Type in all cases: in vivo, Wistar rats
[1] = tested on: potassium oxonate and xanthine-induced hyperuricemic rats; experiment: serum creatinine levels in hyperuricemic rats; settings: oral gavage once daily for 14 days, vs model group
Procedure: (§1) 48 healthy specific pathogen-free (SPF) male Wistar rats (7 weeks, body weight: (200±20) g) were selected. In order to acclimate to a new environment, the 48 male rats were maintained in the animal house with the temperature of 22° C., the humidity of 10% to 60%, and 12 h/12 h light/dark cycle, and fed with standard diet and water ad libitum for 1 week. After the 1 week of acclimating, all experimental rats were randomly assigned to the following 6 groups with 8 rats per group: a control group (group A), a model group (group B), a Lactiplantibacillus plantarum strain BL-17 treated group (group C), a galacto-oligosaccharide-adenylic acid treated group (group D), a combination treated group (group E), and an allopurinol intervention treated group (positive control) (group F). […]
(§2) At the late stage of the experiment, fresh feces of the rats were collected and frozen in a −80° C. refrigerator. […] After being collected, the liver tissue was immediately rinsed with pre-cooled normal saline to remove blood, rapidly frozen in liquid nitrogen and then frozen at −80° C., and subsequently homogenized into liver homogenate, and then relevant indicators were determined. […]

[2] = tested on: potassium oxonate and xanthine-induced hyperuricemic rats; experiment: serum uric acid levels in hyperuricemic rats; settings: oral gavage once daily for 14 days, vs model group (group B)
Procedure: as §1, §2

[3] = tested on: potassium oxonate and xanthine-induced hyperuricemic rats; experiment: urinary uric acid level in hyperuricemic rats; settings: oral gavage once daily for 14 days, vs model group (group B)
Procedure: as §1

XOD = experiment: activity of XOD in serum and liver tissues of hyperuricemic rats; settings: oral gavage once daily for 14 days, vs model group
Procedure: as §1, §2

Oc1ncnc2[nH]ncc12 [allopurinol]
serum creatinine levels compared with hyperuricemia model group [1]: decrease
serum uric acid concentration compared with model group [2]: decrease
urinary uric acid levels compared with model group [3]: decrease to urinary uric acid levels in rats of the control group
activities of XOD in serum and liver compared with model group (XOD): decrease to varying degrees

Reference: patent publication US12391913B2, “Lactiplantibacillus plantarum strain for alleviating hyperuricemia and combination and use thereof” (Northeast Agricultural University, priority 2023, dated 2025)
